{"source": "ChEMBL document CHEMBL5385850", "about": "“Identification of novel aza-analogs of TN-16 as disrupters of microtubule dynamics through a multicomponent reaction” (Eur J Med Chem, 2023)", "key": {"[1]": {"target": "T1, Tubulin (Homo sapiens) (UniProt P68371+Q9H4B7+P0DPH7+P68366+Q13509+Q71U36+P04350+Q3ZCM7+P07437+P68363+Q9BQE3+Q6PEY2+Q13885+Q9BVA1+Q9BUF5)", "experiment": "Inhibition of tubulin polymerization in human SH-SY5Y cells assessed as decrease in depolymerized tubulin to polymerized tubulin ratio at 100 nM measured after 16 hrs by Western blot analysis", "type": "cell-based"}, "[2]": {"system": "SH-SY5Y", "experiment": "Upregulation of tubulin acetylation in human SH-SY5Y cells at 1 uM measured after 16 hrs by Western blot analysis", "type": "functional, cell-based"}, "[3]": {"system": "SH-SY5Y", "experiment": "Cytotoxicity against human SH-SY5Y cells incubated for 48 hrs by MTT assay", "type": "functional, cell-based"}, "[4]": {"system": "SH-SY5Y", "experiment": "Upregulation of tubulin acetylation in human SH-SY5Y cells at 300 nM by immunofluorescence assay", "type": "functional, cell-based"}, "[5]": {"target": "T1, Tubulin (Homo sapiens)", "experiment": "Inhibition of tubulin polymerization in human SH-SY5Y cells assessed as disappearance of tubulin network structure at 3 times EC50 measured after 16 hrs by immunofluorescence assay", "type": "cell-based"}, "[6]": {"system": "SH-SY5Y", "experiment": "Induction of cell cycle arrest in human SH-SY5Y cells assessed as accumulation of cells at G2/M phase at 1 uM measured after 16 hrs by PI staining based flow cytometry analysis", "type": "functional"}, "[7]": {"target": "T1, Tubulin (Homo sapiens)", "experiment": "Inhibition of tubulin polymerization in human SH-SY5Y cells assessed as decrease in depolymerized tubulin to polymerized tubulin ratio at 1 uM measured after 16 hrs by Western blot analysis", "type": "cell-based"}, "[8]": {"target": "T1, Tubulin (Homo sapiens)", "experiment": "Inhibition of tubulin polymerization (unknown origin) at 1 to 30 uM measured every 60 secs for 1 hr by fluorescence based analysis", "type": "protein-complex assay", "settings": "dose 1-30 µM, time 60.0 sec"}, "[9]": {"system": "SH-SY5Y", "experiment": "Upregulation of tubulin acetylation in human SH-SY5Y cells at 100 to 1000 nM measured after 16 hrs by Western blot analysis", "type": "functional, cell-based", "settings": "dose 100-1000 nM"}, "[10]": {"system": "MCF7", "experiment": "Cytotoxicity against human MCF7 cells incubated for 48 hrs by MTT assay", "type": "functional, cell-based"}, "[11]": {"system": "MDA-MB-231", "experiment": "Cytotoxicity against human MDA-MB-231 cells incubated for 48 hrs by MTT assay", "type": "functional, cell-based"}, "[12]": {"system": "SH-SY5Y", "experiment": "Cytotoxicity against human SH-SY5Y cells at 1 uM incubated for 72 hrs by MTT assay relative to control", "type": "functional"}, "[13]": {"system": "SH-SY5Y", "experiment": "Upregulation of tubulin acetylation in human SH-SY5Y cells at 200 nM by immunofluorescence assay", "type": "functional, cell-based"}, "[14]": {"target": "T1, Tubulin (Homo sapiens)", "experiment": "Inhibition of tubulin polymerization (unknown origin) measured every 60 secs for 1 hr by fluorescence based analysis", "type": "protein-complex assay", "settings": "dose 1-10 µM"}, "[15]": {"system": "SH-SY5Y", "experiment": "Upregulation of tubulin acetylation in human SH-SY5Y cells at 70 to 350 nM measured after 16 hrs by Western blot analysis", "type": "functional, cell-based", "settings": "dose 70-350 nM"}, "[16]": {"system": "HeLa", "experiment": "Cytotoxicity against human HeLa cells incubated for 48 hrs by MTT assay", "type": "functional, cell-based"}}, "note": "Activity calls are given as the source filed them. No cut-off for these calls is given here."}
{"smiles": "CC(=O)O[C@H]1C(=O)[C@@]2(C)[C@H]([C@H](OC(=O)c3ccccc3)[C@]3(O)C[C@H](OC(=O)[C@H](O)[C@@H](NC(=O)c4ccccc4)c4ccccc4)C(C)=C1C3(C)C)[C@]1(OC(C)=O)CO[C@@H]1C[C@@H]2O", "values": [{"measurement": "inhibition", "setting": "[1]", "result": "Active"}]}
{"smiles": "C#CCCOc1cccc(N/C(C)=C2\\C(=O)NN(Cc3ccccc3)C2=O)c1", "values": [{"measurement": "Activity", "setting": "[2]", "result": "Active"}, {"measurement": "EC50", "setting": "[3]", "result": 790, "unit": "nM"}]}
{"smiles": "C#CCOc1cccc(N/C(C)=C2\\C(=O)NN(Cc3ccccc3)C2=O)c1", "values": [{"measurement": "Activity", "setting": "[4]", "result": "Active"}, {"measurement": "inhibition", "setting": "[5]", "result": "inactive"}, {"measurement": "Activity", "setting": "[6]", "result": "Active"}, {"measurement": "EC50", "setting": "[3]", "result": 102, "unit": "nM"}, {"measurement": "inhibition", "setting": "[7]", "result": "inactive"}, {"measurement": "inhibition", "setting": "[8]", "result": "Active"}, {"measurement": "Activity", "setting": "[9]", "result": "Active"}]}
{"smiles": "COc1ccc(/C=C\\c2cc(OC)c(OC)c(OC)c2)cc1O", "values": [{"measurement": "Activity", "setting": "[10]", "result": "inactive"}, {"measurement": "Activity", "setting": "[11]", "result": "inactive"}]}
{"smiles": "C/C(Cc1ccccc1)=C1/C(=O)N[C@@H](Cc2ccccc2)C1=O", "values": [{"measurement": "Activity", "setting": "[12]", "result": 100.7, "unit": "%"}]}
{"smiles": "CN(/C=C1\\C(=O)N[C@@H](Cc2ccccc2)C1=O)c1ccccc1", "values": [{"measurement": "Activity", "setting": "[12]", "result": 112.4, "unit": "%"}]}
{"smiles": "C/C(Nc1ccccc1)=C1/C(=O)NN(Cc2ccccc2)C1=O", "values": [{"measurement": "Activity", "setting": "[12]", "result": 36.2, "unit": "%"}]}
{"smiles": "O=C1N[C@@H](Cc2ccccc2)C(=O)/C1=C/Nc1ccccc1", "values": [{"measurement": "Activity", "setting": "[12]", "result": 70.3, "unit": "%"}]}
{"smiles": "C/C(Nc1ccccc1)=C1/C(=O)N[C@@H](Cc2ccccc2)C1=O", "values": [{"measurement": "Activity", "setting": "[2]", "result": "inactive"}, {"measurement": "inhibition", "setting": "[5]", "result": "inactive"}, {"measurement": "Activity", "setting": "[10]", "result": "inactive"}, {"measurement": "Activity", "setting": "[13]", "result": "Active"}, {"measurement": "Activity", "setting": "[6]", "result": "Active"}, {"measurement": "EC50", "setting": "[3]", "result": 68, "unit": "nM"}, {"measurement": "inhibition", "setting": "[7]", "result": "inactive"}, {"measurement": "Activity", "setting": "[12]", "result": 34.7, "unit": "%"}, {"measurement": "Activity", "setting": "[11]", "result": "inactive"}, {"measurement": "inhibition", "setting": "[14]", "result": "Dose-Dependent Effect"}, {"measurement": "Activity", "setting": "[15]", "result": "Active"}, {"measurement": "Activity", "setting": "[16]", "result": "Active"}]}
{"smiles": "C/C(Nc1cccc(Oc2ccccc2)c1)=C1/C(=O)NN(Cc2ccccc2)C1=O", "values": [{"measurement": "Activity", "setting": "[2]", "result": "Active"}, {"measurement": "Activity", "setting": "[6]", "result": "Active"}, {"measurement": "EC50", "setting": "[3]", "result": 895, "unit": "nM"}]}
